Measured values from US20090318514A1, “Novel Pharmaceutical Compositions” (priority 2006, published 2009).

Key:
CHO/hThRβ1 = target: T1, CHO/hThRβ1 (Homo sapiens, UniProt P10828); test: Reporter cell line (TRAF) assay, agonist activity; assay type: cell-based; details: CHO/hThRβ1 reporter cells, alkaline phosphatase readout after 48 hours
T1 construct: The cDNAs encoding the full length human ThRα1 and ThRβ1 were cloned; expressed in transfected cells
T1 sequence (P10828 1-461): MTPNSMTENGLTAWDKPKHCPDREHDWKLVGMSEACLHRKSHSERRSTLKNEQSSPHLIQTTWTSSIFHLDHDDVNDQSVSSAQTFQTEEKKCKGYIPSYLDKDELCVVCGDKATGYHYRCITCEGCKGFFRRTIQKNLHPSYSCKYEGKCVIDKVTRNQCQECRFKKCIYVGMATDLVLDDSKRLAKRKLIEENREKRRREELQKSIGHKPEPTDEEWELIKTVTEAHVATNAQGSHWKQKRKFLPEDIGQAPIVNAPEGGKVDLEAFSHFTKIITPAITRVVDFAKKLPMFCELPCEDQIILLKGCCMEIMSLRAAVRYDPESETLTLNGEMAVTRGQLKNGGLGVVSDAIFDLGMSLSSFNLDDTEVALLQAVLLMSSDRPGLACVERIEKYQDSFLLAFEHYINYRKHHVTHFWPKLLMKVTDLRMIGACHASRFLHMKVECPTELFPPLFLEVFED
Excerpt: Vector Constructs, Generation of Reporter Cell Lines (TRAF), and Assay Procedure.
The cDNAs encoding the full length human ThRα1 and ThRβ1 were cloned in the mammalian expression vector pMT-hGH. The pDR4-ALP reporter vector contains one copy of the direct repeat sequence AGGTCA nnnnAGGTCA, fused upstream of the core promoter sequences of the mouse mammary tumor virus long terminal repeat (MMTV), replacing the glucocorticoid response elements. The DR4-MMTV promoter fragment was then cloned in the 5′ end of the cDNA encoding human placental alkaline phosphatase (ALP), followed in the 3′-end by the polyA-signal sequence of the human growth hormone gene. Chinese hamster ovary (CHO) K1 cells (ATCC No. CCL 61) were transfected in two steps, first with the receptor expression vectors pMT-hThRα1 and pMT-THRβ1, respectively, and the drug resistance vector pSV2-Neo, and in the second step, with the reporter vector pDR4-ALP and the drug resistance vector pKSV-Hyg. Individual drug resistant clones were isolated and selected based on T3 inducibility. One stable reporter cell clone each of CHO/hThRα1 and CHO/hThRβ1 were chosen for further study in response to various thyroid hormone agonists.
CHO/hThRα1 and CHO/hThRβ1 were seeded in growth medium (Coon's/F12, 10% L-3,5,3′-triiodothyronine and L-thyroxine depleted FCS, 2 mM L-glutamine) in 96-well plates at 20×10^3 cells per well. After 24 hour incubation at 37° C. in humidified chambers, at 5% CO2, conditioned medium was replaced by induction medium (OptiMEM, 2 mM L-glutamine, 50 μm/mL gentamycin) and cells were exposed to the test compounds at serial dilutions, at final DMSO concentration of 0.5% , or to serial dilution of T3 (positive control), to assess agonist activity of test compounds.
After 48 hours incubation at 37° C. in humidified chambers at 5% CO2 the level of alkaline phosphatase expressed and secreted into the cell culture medium was analyzed by chemiluminescence on MicroBeta Trilux.
The assay procedure described above was carried out for the compounds of Examples 1 to 40, 43-44 and 47-48.

hTRβ = target: T2, hTRβ (Homo sapiens, UniProt P10828); test: TR competition binding assay with filter separation; details: competition with 125I-T3 tracer, full length hTRβ; read-out: TR-β IC50
T2 sequence (P10828 1-461): T1 sequence (P10828 1-461)
Procedure: TR Competition Binding Assay with Filter Separation
Compounds are tested for their ability to compete with the tracer ^125I-T3 for binding to full length hTRα and hTRβ. Receptor extracts and tracer are diluted in assay buffer (17 mM K2HPO4, 3 mM KH2PO4, 400 mM KCl, 1 mM MgCl2, 0.5 mM EDTA and 8.7% glycerol). ^125I-T3 is diluted to a final concentration of 0.2 nM and receptor is diluted to reach a final count in Trilux Microbeta of approximately 10000 ccpm. Compounds are typically serially diluted in DMSO from DMSO stock solutions of 10 mM. To 96 well microtiter plates are 100 μl tracer, 4 μl test compound dilution series and 100 μl receptor dilution added. The assay plates are incubated at +4° C. overnight (app. 16 h incubation). Receptor bound and free tracer are separated over a glass fiber filter (FILTERMAT B, PerkinElmer) on a Tomtec Cellharvester with 18 mM K2HPO4, 2 mM KH2PO4, 0.5 mM EDTA wash buffer. The filters are dried at 60° C. for 1 h and then merged with a scintillant wax (MELTILEX, PerkinElmer) on a Wallac Microsealer before measuring in a Trilux Microbeta. IC50s, the concentration test compound needed to decrease tracer binding by 50 percent, are generated via analysis of data in XLfit version 2.0 or later with a four parameter logistic model.

Row | β % agonism (CHO/hThRβ1) [%] | IC50 (hTRβ) [nM] | Structure (SMILES)
1 | 70 | 7.5 | CCCc1nc2cc(Oc3c(Br)cc(OCC(=O)O)cc3Br)ccc2[nH]1 [Example 17]
2 | 75 | 0.49 | Cc1nc(-c2nc3cc(Oc4c(Br)cc(CC(F)C(=O)O)cc4Br)ccc3[nH]2)c(C)o1 (stereo not drawn) [Example 32, 3-{3,5-Dibromo-4-[2-(2,5-dimethyl-oxazol4-yl)-1H-benzoimidazol-5-yloxy]-phenyl}-2-fluoropropionic acid]

Second part, the compound before the results:

Row | Structure (SMILES) | β % agonism (CHO/hThRβ1) [%] | IC50 (hTRβ) [nM]
3 | CC(C)Cc1nc2cc(Oc3c(Br)cc(CC(F)C(=O)O)cc3Br)ccc2[nH]1 (racemic) [Example 10, 3-(3,5-dibromo-4-{[2-isobutyl-1H-benzimidazol-5-yl]oxy}phenyl)-2-fluoropropanoic acid] | 100 | 0.14
4 | O=C(O)CCCc1cc(Br)c(Oc2ccc3[nH]c(-c4ccc(F)cc4)nc3c2)c(Br)c1 [Example 5, 4-(3,5-dibromo-4-{[2-(4-fluorophenyl)-1H-benzimidazol-5-yl]oxy}phenyl)butanoic acid] | 91 | 5.5
5 | Cc1cccc(-c2nc3cc(Oc4c(Br)cc(CCC(=O)O)cc4Br)ccc3[nH]2)c1 [Example 11, 3-(3,5-dibromo-4-{[2-(3-methylphenyl)-1H-benzimidazol-5-yl]oxy}phenyl)propanoic acid] | 99 | 2.4
6 | CC(C)(C)Cc1nc2cc(Oc3c(Br)cc(OCC(=O)O)cc3Br)ccc2[nH]1 [Example 15, {3,5-dibromo-4-{[2-(2,2-dimethylpropyl)-1H-benzimidazol-5-yl)oxy]phenoxy}acetic acid] | 70 | 1.7
